# Results from patent publication US20230331781A1, “PAR4 DERIVED PEPTIDES, ANALOGS AND USES THEREOF” (Yissum Research Development Company of the Hebrew …, priority 2019, published 2023).
# Numbered stars: 1 amine (or outer) side, 2 acyl side, 3 side chain; on linkers, the order of the positions; unused ones are H or OH. Bridge positions count the residues as written; N and C are the ends. Square brackets hold non-standard residues; d marks the D form. Ends that are not written are not given here. GlyBU(C4) = Gly building unit (N-alpha-functionalized Gly) carrying a C4 alkyl chain (n = m = 4), bridged through a urea group; CO = O=C([*:1])[*:2]
# Test system: RKO/hPar4 cells
# Assay: Xenograft tumor model, RKO/hPar4 clone inoculated subcutaneously in nude mice
# Format: in vivo
# Conditions: for tumor growth / tumor size: RKO/hPar4 in nude mice, s.c. at tumor site, 100 μM, 0.25 mg/30 gm, 3 times/week, from day of inoculation or 4 days later, 32 days
# Experimental: FIG. 9A. A clone of RKO/PAR4 overexpressing cells (1×10^6) were injected subcutaneously into nude mice. PAR4 c(4-4) (100 μM; 0.25 mg/30 gm) was subcutaneously injected, at the site of the tumor either at the same day of RKO/PAR4 clone inoculation or 4 days later. The inhibitor was applied repeatedly 3 times/week for 3 weeks. Mice were weighted every 3 days and tumor size was measured. Mice were sacrificed after 32 days. […] Tumors were weighed and measured for size at the indicated time points and tumor volume was calculated05. FIG. 9C. qPCR of a representative RKO stable clone of PAR4. Error bars show s.d.; *** P<0.001. FIG. 9D. IHC of RKO/PAR4 derived tumors. Immunohistochemistry of RKO compared to small tumors in the presence of PAR4 c(4-4) inhibitor. Levels of proliferation in the large and small tumors were indicated by applying anti ki67 abs (FIG. 9Da and 9Db). For apoptosis, application of active caspase-3 Abs were applied (FIG. 9Dc and 9Dd). […] FIG. 9E. Histograms representing positive IHC in each treatment group. […] Hematoxilyn & eosin staining of large (left panel) and small (right panel) tumors distinctly indicate to the appearance of a wide basement membrane in the small tumors whereas a thinner and cell-invaded basement membrane is observed in large tumors.
# We have generated stable clones overexpressing PAR4 in RKO cells, a non-aggressive colon cancer cell line (expressing wt p53), by infecting the cells with HA-hPar4 virus. This was followed by selection using Geneticin G418 resistance (500 μg/ml) to produce RKO/hPar4 clones. Clone efficiency generation was evaluated using qPCR analyses.
# Male athymic nude mice aged 6-7 weeks were pre-implanted subcutaneously with the relevant cells (1×10^6 cells): either with HCT-116 or with RKO/hPar4 cells.
# The inhibitor was injected at the site of the tumor at the day of inoculation. In an additional group, mice implanted with HCT-116 were administered with the inhibitor at day 4 after inoculation. The inhibitor ([…]) was applied repeatedly 3 times/week to all mice after the first administration of the inhibitor.
# Mice were monitored for tumor size by external caliber measurements (length and width) on days 7, 14, 22 and for up to 32 days, if tumor burden allowed. Tumor volume (V) was calculated by V=L×W^2×0.5, where L is length and W is width. At the end of the experiment, mice were euthanized and tumors were removed, weighed and fixed in formalin for histology. All mice survived to the end of the experiment. All animal experiments were approved by the animal committee of the Hebrew University (MD-19-15924). In fact, for the xenograft tumor formation we have utilized two types of cell lines; the HCT116 cells, an aggressive colon cancer cell line, overexpressing oncogenes among of which is also PAR4, (FIGS. 10A and 10B) and clone/s overexpressing Par4, generated in RKO cell line; RKO/hPar4 cells (FIG. 9A-9C). HCT116 (1×10^6) and RKO/hPar4 (1×10^6) clone/s were inoculated subcutaneously in nude mice. The Pc(4-4) cyclic peptide was injected at the site of the tumor (100 μM; 0.25 mg/30 gram mouse), either at the time of tumor cell injection or 4 days after tumor-cell implantation. The Pc(4-4) cyclic peptide was applied repeatedly 3 times/week. The HCT116 cell inoculation generated large tumors and were terminated after 20 days, whereas the RKO/Par4 inoculation developed tumors on a slower pace and were terminated after 32 days. […] The powerful inhibition of tumor growth was seen regardless of whether the Pc(4-4) cyclic peptide was applied at the same time of tumor inoculation or applied 4 days later. This was obtained irrespective of using an aggressive colon cancer cell line or stable RKO/hPar4 clone/s, overexpressing PAR4 (FIGS. 9A and 9B).
# [1] = RKO/PAR4 derived small tumors generated in the presence of the inhibitor vs large tumors
substance,measurement,setting,value
"Pc(4-4): backbone cyclic analog of Formula I, m=n=4, ring size 30 atoms (S[GlyBU(C4)]EFRDK[GlyBU(C4)]; bridge 2-8 via CO; not fully specified; printed as SZ1EFRDKX3)",apoptosis in tumors (active caspase-3 IHC),[1],induced levels of active caspase-3
same,proliferation in tumors (ki67 IHC),[1],little
same,apoptosis in tumors (active caspase-3 IHC),"RKO/PAR4 derived small tumors generated in the presence of the inhibitor vs large tumors, listed as PAR4 c(4-4)",high levels of active caspase-3
same,difference between treatment started at the day of inoculation or 4 days after inoculation,RKO/Par4 stable clones in nude mice,no statistical difference
same,tumor growth / tumor size,,significantly smaller tumors
same,tumor growth / tumor size,listed as PAR4 c(4-4),potently inhibits
same,tumor growth / tumor size,listed as PAR(4-4),markedly small tumors
